Data published in ChEMBL document CHEMBL2203120, “Contribution to investigation of antimicrobial activity of styrylquinolines” (Bioorg Med Chem, 2012).
Values after ≈ are worked out from the molar mass of the structure shown. Where a SMILES comes first, the peptide text is derived from it. Bridges are numbered along the chain shown (N, C = ends). [ ]: non-standard residue; d: D form. The star is where a group is joined. Ileψ(thiazoline)Cys = CC[C@H](C)[C@H](N)C1=N[C@H](C(=O)*)CS1; dOrn = NCCC[C@@H](N)C(=O)O

Tests used:
[1] = Lipophilicity, log P of compound by RP-HPLC analysis; type: physicochemical
[2] = tested on: Staphylococcus epidermidis; assay: Antimicrobial activity against Staphylococcus epidermidis H 6966/08 after 48 hrs by broth microdilution method; type: functional; details: H 6966/08, 48 h
[3] = tested on: Staphylococcus epidermidis; assay: Antimicrobial activity against Staphylococcus epidermidis H 6966/08 after 24 hrs by broth microdilution method; type: functional; details: H 6966/08, 24 h
Staphylococcus aureus [4] = assay: Antimicrobial activity against methicillin-resistant Staphylococcus aureus H 5996/08 after 48 hrs by broth microdilution method; type: functional; details: H 5996/08, 48 h
Staphylococcus aureus [5] = assay: Antimicrobial activity against methicillin-resistant Staphylococcus aureus H 5996/08 after 24 hrs by broth microdilution method; type: functional; details: H 5996/08, 24 h
Staphylococcus aureus [6] = assay: Antimicrobial activity against Staphylococcus aureus CCM 4516/08 after 48 hrs by broth microdilution method; type: functional; details: CCM 4516/08, 48 h
Staphylococcus aureus [7] = assay: Antimicrobial activity against Staphylococcus aureus CCM 4516/08 after 24 hrs by broth microdilution method; type: functional; details: CCM 4516/08, 24 h
Candida albicans [8] = assay: Antimicrobial activity against Candida albicans ATCC 44859 after 48 hrs by broth microdilution test; type: functional; details: ATCC 44859, 48 h
[9] = tested on: Trichophyton mentagrophytes; assay: Antimicrobial activity against Trichophyton mentagrophytes 445 after 72 hrs by broth microdilution test; type: functional; details: Trichophyton mentagrophytes, 445, 72 h
Aspergillus fumigatus [10] = assay: Antimicrobial activity against Aspergillus fumigatus 231 after 24 hrs by broth microdilution test; type: functional; details: Aspergillus fumigatus, 231, 24 h
Trichosporon beigelii [11] = assay: Antimicrobial activity against Trichosporon beigelii 1188 after 24 hrs by broth microdilution test; type: functional; details: Trichosporon beigelii, 1188, 24 h
Nakaseomyces glabratus [12] = assay: Antimicrobial activity against Candida glabrata 20/I after 24 hrs by broth microdilution test; type: functional
Pichia kudriavzevii [13] = assay: Antimicrobial activity against Candida krusei ATCC 6258 after 24 hrs by broth microdilution test; type: functional; details: ATCC 6258, 24 h
Candida albicans [14] = assay: Antimicrobial activity against Candida albicans ATCC 44859 after 24 hrs by broth microdilution test; type: functional; details: ATCC 44859, 24 h
Lichtheimia corymbifera [15] = assay: Antimicrobial activity against Absidia corymbifera 272 after 24 hrs by broth microdilution test; type: functional; details: Lichtheimia corymbifera, 272, 24 h
Candida tropicalis [16] = assay: Antimicrobial activity against Candida tropicalis 156 after 24 hrs by broth microdilution test; type: functional; details: Candida tropicalis, 156, 24 h
[17] = tested on: Trichophyton mentagrophytes; assay: Antimicrobial activity against Trichophyton mentagrophytes 445 after 120 hrs by broth microdilution test; type: functional; details: Trichophyton mentagrophytes, 445, 120 h
Lichtheimia corymbifera [18] = assay: Antimicrobial activity against Absidia corymbifera 272 after 48 hrs by broth microdilution test; type: functional; details: Lichtheimia corymbifera, 272, 48 h
Aspergillus fumigatus [19] = assay: Antimicrobial activity against Aspergillus fumigatus 231 after 48 hrs by broth microdilution test; type: functional; details: Aspergillus fumigatus, 231, 48 h
Trichosporon beigelii [20] = assay: Antimicrobial activity against Trichosporon beigelii 1188 after 48 hrs by broth microdilution test; type: functional; details: Trichosporon beigelii, 1188, 48 h
Nakaseomyces glabratus [21] = assay: Antimicrobial activity against Candida glabrata 20/I after 48 hrs by broth microdilution test; type: functional
Pichia kudriavzevii [22] = assay: Antimicrobial activity against Candida krusei ATCC 6258 after 48 hrs by broth microdilution test; type: functional; details: ATCC 6258, 48 h
Candida tropicalis [23] = assay: Antimicrobial activity against Candida tropicalis 156 after 48 hrs by broth microdilution test; type: functional; details: Candida tropicalis, 156, 48 h

Row | Structure (SMILES) | logP [1] | MIC90 [2] | MIC90 [3] | MIC90 (Staphylococcus aureus [4]) | MIC90 (Staphylococcus aureus [5]) | MIC90 (Staphylococcus aureus [6]) | MIC90 (Staphylococcus aureus [7]) | MIC80 (Candida albicans [8]) | MIC50 [9] | MIC50 (Aspergillus fumigatus [10]) | MIC80 (Trichosporon beigelii [11]) | MIC80 (Nakaseomyces glabratus [12]) | MIC80 (Pichia kudriavzevii [13]) | MIC80 (Candida albicans [14]) | MIC50 (Lichtheimia corymbifera [15]) | MIC80 (Candida tropicalis [16]) | further results
1 | Oc1c(Cl)cc(Cl)c2ccc(/C=C/c3ccc(/C=C/c4ccc5c(Cl)cc(Cl)c(O)c5n4)cc3)nc12 | 8.88 | 125 µM (≈ 69.3 µg/mL) | 62.5 µM (≈ 34.6 µg/mL) | 125 µM (≈ 69.3 µg/mL) | 62.5 µM (≈ 34.6 µg/mL) | 125 µM (≈ 69.3 µg/mL) | 62.5 µM (≈ 34.6 µg/mL) | 3.9 µM (≈ 2.16 µg/mL) | 3.9 µM (≈ 2.16 µg/mL) | 3.9 µM (≈ 2.16 µg/mL) | 3.9 µM (≈ 2.16 µg/mL) | 0.49 µM (≈ 0.272 µg/mL) | 0.98 µM (≈ 0.543 µg/mL) | 0.98 µM (≈ 0.543 µg/mL) | – | – | –
2 | Oc1ccccc1/C=C/c1ccc2ccccc2n1 | 4.34 | > 250 µM | > 500 µM | > 250 µM | > 250 µM | > 250 µM | > 250 µM | – | > 125 µM | > 125 µM | > 125 µM | > 125 µM | > 125 µM | > 125 µM | > 125 µM | > 125 µM | –
3 | Oc1ccccc1/C=C/c1ccc2cccc(O)c2n1 | 3.95 | 125 µM (≈ 32.9 µg/mL) | 62.5 µM (≈ 16.5 µg/mL) | 125 µM (≈ 32.9 µg/mL) | 62.5 µM (≈ 16.5 µg/mL) | 62.5 µM (≈ 16.5 µg/mL) | 62.5 µM (≈ 16.5 µg/mL) | 62.5 µM (≈ 16.5 µg/mL) | 31.2 µM (≈ 8.23 µg/mL) | 500 µM (≈ 132 µg/mL) | 31.2 µM (≈ 8.23 µg/mL) | 31.2 µM (≈ 8.23 µg/mL) | 31.2 µM (≈ 8.23 µg/mL) | 31.2 µM (≈ 8.23 µg/mL) | 62.5 µM (≈ 16.5 µg/mL) | 125 µM (≈ 32.9 µg/mL) | MIC50 [17]: 62.5 µM (≈ 16.5 µg/mL); MIC50 (Lichtheimia corymbifera [18]): > 500 µM; MIC50 (Aspergillus fumigatus [19]): > 500 µM; MIC80 (Trichosporon beigelii [20]): 62.5 µM (≈ 16.5 µg/mL); MIC80 (Nakaseomyces glabratus [21]): 31.2 µM (≈ 8.23 µg/mL); MIC80 (Pichia kudriavzevii [22]): 62.5 µM (≈ 16.5 µg/mL); MIC80 (Candida tropicalis [23]): 500 µM (≈ 132 µg/mL)
4 | CC[C@H](C)[C@H](N)C1=N[C@H](C(=O)N[C@@H](CC(C)C)C(=O)N[C@H](CCC(=O)O)C(=O)N[C@H](C(=O)N[C@H]2CCCCNC(=O)[C@H](CC(N)=O)NC(=O)[C@@H](CC(=O)O)NC(=O)[C@H](Cc3cnc[nH]3)NC(=O)[C@@H](Cc3ccccc3)NC(=O)[C@H]([C@@H](C)CC)NC(=O)[C@@H](CCCN)NC2=O)[C@@H](C)CC)CS1 [BACITRACIN] ({Ileψ(thiazoline)Cys}-L[dE]IK[dOrn]I[dF]H[dD]N; lactam 4-C) | – | 31.6 µM (≈ 45 µg/mL) | 15.6 µM (≈ 22.2 µg/mL) | 31.6 µM (≈ 45 µg/mL) | 15.6 µM (≈ 22.2 µg/mL) | 31.2 µM (≈ 44.5 µg/mL) | 15.6 µM (≈ 22.2 µg/mL) | – | – | – | – | – | – | – | – | – | –
5 | Oc1c(Cl)cc(Cl)c2ccc(/C=C/c3ccccc3Cl)nc12 | 6.02 | – | – | – | – | – | – | – | – | – | – | – | – | – | – | – | –
6 | Oc1ccc(/C=C/c2ccc3c(Cl)cc(Cl)c(O)c3n2)cc1O | 4.68 | 31.2 µM (≈ 10.9 µg/mL) | 15.6 µM (≈ 5.44 µg/mL) | 62.5 µM (≈ 21.8 µg/mL) | 31.2 µM (≈ 10.9 µg/mL) | 62.5 µM (≈ 21.8 µg/mL) | 62.5 µM (≈ 21.8 µg/mL) | – | – | – | – | – | – | – | – | – | –
7 | Oc1ccc(/C=C/c2ccc3c(Cl)cc(Cl)c(O)c3n2)c(O)c1 | 4.68 | 31.2 µM (≈ 10.9 µg/mL) | 15.6 µM (≈ 5.44 µg/mL) | 62.5 µM (≈ 21.8 µg/mL) | 31.2 µM (≈ 10.9 µg/mL) | 62.5 µM (≈ 21.8 µg/mL) | 15.6 µM (≈ 5.44 µg/mL) | – | – | – | – | – | – | – | – | – | –
8 | CC1(C)S[C@@H]2[C@H](NC(=O)COc3ccccc3)C(=O)N2[C@H]1C(=O)O [PENICILLIN V] | – | 125 µM (≈ 43.8 µg/mL) | 31.2 µM (≈ 10.9 µg/mL) | 125 µM (≈ 43.8 µg/mL) | 125 µM (≈ 43.8 µg/mL) | 0.24 µM (≈ 0.0841 µg/mL) | 0.24 µM (≈ 0.0841 µg/mL) | – | – | – | – | – | – | – | – | – | –
9 | O=C(O)c1cn(C2CC2)c2cc(N3CCNCC3)c(F)cc2c1=O [CIPROFLOXACIN] | – | 250 µM (≈ 82.8 µg/mL) | 250 µM (≈ 82.8 µg/mL) | 500 µM (≈ 166 µg/mL) | 500 µM (≈ 166 µg/mL) | 0.98 µM (≈ 0.325 µg/mL) | 0.98 µM (≈ 0.325 µg/mL) | – | – | – | – | – | – | – | – | – | –
10 | Oc1ccc(/C=C/c2ccc3cccc(O)c3n2)c(O)c1 | 3.56 | 250 µM (≈ 69.8 µg/mL) | 125 µM (≈ 34.9 µg/mL) | 62.5 µM (≈ 17.5 µg/mL) | 31.2 µM (≈ 8.73 µg/mL) | 31.2 µM (≈ 8.73 µg/mL) | 15.6 µM (≈ 4.36 µg/mL) | > 125 µM | 31.2 µM (≈ 8.73 µg/mL) | 125 µM (≈ 34.9 µg/mL) | 62.5 µM (≈ 17.5 µg/mL) | 62.5 µM (≈ 17.5 µg/mL) | 62.5 µM (≈ 17.5 µg/mL) | 125 µM (≈ 34.9 µg/mL) | > 125 µM | > 125 µM | MIC50 [17]: 62.5 µM (≈ 17.5 µg/mL); MIC50 (Lichtheimia corymbifera [18]): > 125 µM; MIC50 (Aspergillus fumigatus [19]): 125 µM (≈ 34.9 µg/mL); MIC80 (Trichosporon beigelii [20]): 125 µM (≈ 34.9 µg/mL); MIC80 (Nakaseomyces glabratus [21]): 125 µM (≈ 34.9 µg/mL); MIC80 (Pichia kudriavzevii [22]): 125 µM (≈ 34.9 µg/mL); MIC80 (Candida tropicalis [23]): > 125 µM
